Source: US20240002351A1, “QUINAZOLIN-4-ONE AND THIENO[2,3-D]PYRIMIDIN-4-ONE INHIBITORS OF ERBB4 (HER4) FOR USE IN THE TREATMENT OF CANCER” (UNIVERSITEIT ANTWERPEN, priority 2021, published 2024)

Assays:
ERBB4 [1] = molecular target: T1, ERBB4 (Homo sapiens, UniProt Q15303); test: PathHunter ERBB4/ERBB4 dimerization assay, compounds on top of 0.1 μM NRG-1 (identification of modulators); type: cell-based; settings: for Emax: on top of 0.1 μM NRG1, relative to NRG1 (set as 100%); for behaviour from the shape of the dose-response curves: on top of 0.1 μM neuregulin-1 (FIG. 1); for EC50: on top of 0.1 μM NRG1
T1 construct: host or cells: U2OS
T1 sequence (Q15303 26-1308): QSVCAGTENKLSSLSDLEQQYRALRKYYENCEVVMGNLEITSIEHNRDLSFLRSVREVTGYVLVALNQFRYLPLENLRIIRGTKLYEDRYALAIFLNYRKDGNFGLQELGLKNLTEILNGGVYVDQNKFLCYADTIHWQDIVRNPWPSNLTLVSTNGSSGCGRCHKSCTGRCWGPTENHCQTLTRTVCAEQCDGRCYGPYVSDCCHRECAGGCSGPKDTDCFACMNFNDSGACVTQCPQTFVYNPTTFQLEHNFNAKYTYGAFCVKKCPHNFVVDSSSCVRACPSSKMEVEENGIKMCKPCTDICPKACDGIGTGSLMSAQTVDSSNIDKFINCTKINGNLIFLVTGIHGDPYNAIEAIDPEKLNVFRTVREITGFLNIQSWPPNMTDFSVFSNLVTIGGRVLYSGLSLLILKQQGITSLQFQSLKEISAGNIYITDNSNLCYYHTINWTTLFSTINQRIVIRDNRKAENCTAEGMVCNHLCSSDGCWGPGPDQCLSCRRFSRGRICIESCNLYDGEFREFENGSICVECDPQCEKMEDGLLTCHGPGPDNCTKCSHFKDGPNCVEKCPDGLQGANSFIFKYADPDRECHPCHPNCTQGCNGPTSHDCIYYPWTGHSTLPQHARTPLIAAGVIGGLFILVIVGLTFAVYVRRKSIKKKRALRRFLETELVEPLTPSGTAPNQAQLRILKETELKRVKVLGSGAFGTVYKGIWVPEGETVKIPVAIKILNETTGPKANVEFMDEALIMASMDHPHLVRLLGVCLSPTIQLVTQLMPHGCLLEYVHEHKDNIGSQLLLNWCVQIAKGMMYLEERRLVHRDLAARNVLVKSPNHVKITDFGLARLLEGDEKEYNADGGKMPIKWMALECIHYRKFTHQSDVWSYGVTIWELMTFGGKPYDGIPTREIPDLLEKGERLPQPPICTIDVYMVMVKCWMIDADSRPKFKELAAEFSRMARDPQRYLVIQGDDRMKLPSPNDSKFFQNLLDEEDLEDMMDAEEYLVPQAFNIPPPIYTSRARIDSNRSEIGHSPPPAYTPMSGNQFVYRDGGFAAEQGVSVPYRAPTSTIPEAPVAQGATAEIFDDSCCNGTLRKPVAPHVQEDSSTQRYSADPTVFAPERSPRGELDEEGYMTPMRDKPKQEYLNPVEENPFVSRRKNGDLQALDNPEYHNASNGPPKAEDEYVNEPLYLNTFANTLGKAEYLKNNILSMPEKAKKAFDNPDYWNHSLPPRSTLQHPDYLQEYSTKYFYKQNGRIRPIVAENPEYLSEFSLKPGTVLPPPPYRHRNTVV
Protocol: (§1) Following 1-12 passages, U2OS ERBB4/ERBB4 dimerization cell line (Eurofins, 93-0961C3) were seeded at 10,000 cells/well in 100 μL cell plating reagent (Eurofins, 93-0563R0A) in white walled 96-well plates (PerkinElmer, 6005680) and incubated for 24h at 37° C. in humidified atmosphere of 5% CO2 in air. Cells were treated with 10 μL of compound (prepared at 11×, Enamine), 10 μM Heregulin-β1 (NRG-1) (DiscoverX, 92-1031 or Peprotech, 100-03) or PBS. […] Cells were subsequently incubated for 6 hours at 37° C., 5% CO2. Then 110 μL PathHunter Flash Detection Reagents (93-0247) were added to each well and cells were incubated at room temperature for 1 hour (covered from light). Afterwards luminescence signal was measured using the Luminoskan Ascent (Thermofisher). Dose response curves of the compounds were performed in 2-fold (0,0625 μM-32 μM).
Cells were treated with compound (prepared at 22×, 10 min pre-incubation) together with NRG-1 (0.1 μM final concentration, Peprotech, 100-03), or NRG-1 (0.1 μM final concentration) or PBS.
The EC50 and the Emax of the compounds on top of 0.1 μM NRG1 is depicted in Table 3 relative to NRG1 (set as 100%).

[2] = Plasma stability, mouse plasma; type: in vitro ADME; settings: 50 μM, 37° C., over 6 hours (FIG. 12)
Protocol: (§2) A 5 μL aliquot of compound solution (10 mM in DMSO) was added to 995 μL of Non Swiss Albino Mouse Plasma (DivBioScience, Breda, Netherlands) or Pooled Normal Human plasma in sodium citrate to obtain a final concentration of 50 μM compound in plasma. The mixture was gently shaken for 6 hours at 37° C. Aliquots of 100 μL were taken at various time points (0, 0.5, 1, 2 and 6 hrs.) and diluted with 400 μL of cold acetonitrile (Sigma-Aldrich, stored at 4° C.). The suspension was centrifuged at 14000 rpm for 5 min. Thereafter, 50 μL of the supernatant was diluted with 950 μL of acetonitrile and analyzed with LC-MS/MS (Waters Acquity H-class UPLC system with ion trap mass spectrometer, Bruker Daltonics Esquire 3000 plus, and Agilent 1100 Series LC system). Samples were analyzed in triplicate and plotted against a standard curve (compound at 3.12-100 μM in plasma and diluted in acetonitrile as described above).

[3] = Plasma stability, human plasma; type: in vitro ADME; settings: 50 μM, 37° C., over 6 hours (FIG. 12)
Protocol: as §2

[4] = Solubility in PBS (absorbance); type: physicochemical; settings: aqueous buffer, kinetic from dmso stock, 37° C., 2 hours (FIG. 10), read-out: solubility: concentration at which easily soluble
Protocol: A dilution series (0.16, 0.31, 0.62, 1.25, 2.5 and 5 mM) was made starting with a compound stock solution of 10 mM in DMSO. Aliquot of 4 μL was taken out of every dilution and added to 196 μL PBS in a 96-well plate. The plate was shaken for 10 seconds, incubated at 37° C. for 2 hours and thereafter absorbance was measured. Samples were analyzed in duplicate.

Chemical stability = type: physicochemical; settings: 37° C. and pH 7.4 for 24 hours (FIG. 11)
Protocol: A 10 μL aliquot of compound solution (10 mM in DMSO) was added to 990 μL DMSO (100 μM) and further diluted with […] to a stock solution of 500 nM. The mixture was incubated at 37° C. Aliquots of 100 μL were taken at various time points (0, 0.5, 1, 2, 3, 6 and 24 hrs) and analyzed with LC-MS/MS (Waters Acquity H-class UPLC system with ion trap mass spectrometer, Bruker Daltonics Esquire 3000 plus, and Agilent 1100 Series LC system). Samples were analyzed in triplicate and plotted against a standard curve; compound at 31-500 nM in buffer solution of pH 7.4 (10 mM Potassium Phosphate, BD Gentest).

ERBB4 [5] = molecular target: T1, ERBB4; test: PathHunter ERBB4/ERBB4 dimerization assay, dose-response curves; type: cell-based; settings: U2OS ERBB4/ERBB4 dimerization cell line, 6 hours, compound alone; for Emax: NRG-1 = 100
Protocol: as §1
From these curves, the EC50 and the Emax of the compounds was calculated.

[6] = Metabolic stability, mouse liver microsomes; type: in vitro ADME; settings: for t1/2 mouse: mouse liver microsomes; for half-life at 10 µM: mouse, liver microsomes, pH 7.4, mouse liver microsomes, read-out: t1/2 mouse
Protocol: A mixture of 713 μL milliQ water (Millipore, MA, USA), 200 μL 0.5 M phosphate buffer (pH 7.4, BD Diagnostic Systems, MD, USA), 50 μL NADPH regenerating system solution A (BD Biosciences, CA, USA), 10 μL NADPH regenerating system solution B (BD Biosciences, CA, USA) and 2 μL compound (5 mM in DMSO) was prepared and heated for 5 min at 37° C. Twenty-five μL of liver microsomes (0.5 mg protein/mL, Corning B.V. Life Sciences, Amsterdam, Netherlands) was added to the mixture and 20 μL samples were withdrawn at 0, 0.25, 0.5 and 1, 2, 4, 6 and 24 hours. Eighty μL (4×20 μL) of cold acetonitrile (Sigma-Aldrich, MO, USA) was added to the samples on ice for 10 min. Afterwards, the mixtures were centrifuged at 13,000 rpm for 5 min at 4° C. Seventy-five μL of an acetonitrile/water (10/90) mixture was added to 25 μL supernatant and the obtained samples were analyzed by LC-MS/MS (Waters Acquity H-class UPLC system with ion trap mass spectrometer, Bruker Daltonics Esquire 3000 plus, and Agilent 1100 Series LC system) in triplicate.

SMILES	Emax (ERBB4 [1])	behaviour from the shape of the dose-response curves (ERBB4 [1])	plasma stability, mouse plasma [2]	plasma stability, human plasma [3]	solubility at 2 h [4]	chemical stability (Chemical stability)	EC50 (ERBB4 [5])	Emax (ERBB4 [5])	t1/2 mouse [6]	half-life at 10 µM [6]	EC50 (ERBB4 [1])
CC(Sc1nc2ccccc2c(=O)n1C1CCCC1)c1nc2ccccc2n1C(F)F (centres unmarked) [Compound 7]	139 ± 19%	weak or silent allosteric modulators	stable	stable	< 25 µM	chemically stable	10.4 µM	9.76 ± 2.46%	14 min	14 to 15 min	
Cc1sc2nc(SC(C)C(=O)Nc3sccc3C(N)=O)n(CC(C)C)c(=O)c2c1C (centres unmarked) [Compound 6]	112 ± 14%	weak or silent allosteric modulators	stable	stable	< 25 µM	chemically stable	6.47 µM	10.3 ± 3.01%	8 min	8 to 12 min	~13.9 µM
O=C(NC1CC1)C(Sc1nc2ccccc2c(=O)n1C1CCCC1)c1ccccc1 (centres unmarked) [Compound 1]	256 ± 126%	ago-allosteric modulators	stable	stable	< 25 µM	chemically stable	8.92 µM	33.1 ± 4.21%	15 min	14 to 15 min	~1.6 µM
